In ChEMBL document CHEMBL3217727, “Berberine azoles as antimicrobial agents: synthesis, biological evaluation and their interactions with human serum albumin” (Medchemcomm, 2013):
In brackets after ≈: the same amount, converted by molar mass.

Tests used:
Micrococcus luteus = assay: Antimicrobial activity against Micrococcus luteus ATCC 4698 after 24 hrs by microbroth dilution method; format: functional; conditions: NCTC 2665, 24 h
Cyberlindnera jadinii = assay: Antimicrobial activity against Candida utilis ATCC 9950 after 24 hrs by microbroth dilution method; format: functional; conditions: Williopsis jadinii, ATCC 9950, 24 h
Saccharomyces cerevisiae = assay: Antimicrobial activity against Saccharomyces cerevisiae ATCC 9763 after 24 hrs by microbroth dilution method; format: functional; conditions: ATCC 9763, 24 h
Bacillus spizizenii = assay: Antimicrobial activity against Bacillus subtilis ATCC 6633 after 24 hrs by microbroth dilution method; format: functional; conditions: ATCC 6633, 24 h
Candida albicans = assay: Antimicrobial activity against Candida albicans ATCC 90029 after 24 hrs by microbroth dilution method; format: functional; conditions: ATCC 90029, 24 h
Candida = assay: Antimicrobial activity against Candida mycoderma after 24 hrs by microbroth dilution method; format: functional
Albumin = Albumin (Homo sapiens, UniProt P02768); assay: Binding affinity to human serum albumin at 0.2 to 1.8 10^-5 mol/L at pH 7.4 at 294 K by UV-vis spectroscopic analysis; format: ADME; conditions: isolated protein
Chain of Albumin (P02768 whole entry): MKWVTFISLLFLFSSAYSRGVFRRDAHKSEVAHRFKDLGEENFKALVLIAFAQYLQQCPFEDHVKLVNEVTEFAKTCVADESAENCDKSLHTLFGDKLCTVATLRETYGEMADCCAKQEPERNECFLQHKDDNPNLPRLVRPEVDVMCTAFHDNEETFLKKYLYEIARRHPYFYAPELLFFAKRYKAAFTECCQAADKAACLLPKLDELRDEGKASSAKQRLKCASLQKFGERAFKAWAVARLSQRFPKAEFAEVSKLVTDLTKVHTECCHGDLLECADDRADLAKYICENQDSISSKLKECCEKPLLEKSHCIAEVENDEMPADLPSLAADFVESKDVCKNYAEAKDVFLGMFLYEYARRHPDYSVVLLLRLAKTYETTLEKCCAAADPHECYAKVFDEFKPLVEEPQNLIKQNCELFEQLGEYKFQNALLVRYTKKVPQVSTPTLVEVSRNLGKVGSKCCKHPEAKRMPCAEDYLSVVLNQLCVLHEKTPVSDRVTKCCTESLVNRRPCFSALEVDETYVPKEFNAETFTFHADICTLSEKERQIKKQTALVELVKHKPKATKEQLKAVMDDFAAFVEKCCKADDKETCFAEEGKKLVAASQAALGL

Proteus vulgaris [1] = assay: Ratio of chloromycin MIC to compound MIC for Proteus vulgaris ATCC 8427; format: functional
Proteus vulgaris [2] = assay: Ratio of norfloxacin MIC to compound MIC for Proteus vulgaris ATCC 8427; format: functional
Proteus vulgaris [3] = assay: Ratio of berberine MIC to compound MIC for Proteus vulgaris ATCC 8427; format: functional
Shigella dysenteriae [4] = assay: Antimicrobial activity against Shigella dysenteriae ATCC 51252 after 24 hrs by microbroth dilution method; format: functional; conditions: ATCC 51252, 24 h
Escherichia coli = assay: Antimicrobial activity against Escherichia coli […] after 24 hrs by microbroth dilution method; format: functional
Staphylococcus aureus [5] = assay: Antimicrobial activity against methicillin-resistant Staphylococcus aureus N315 after 24 hrs by microbroth dilution method; format: functional; conditions: N315, 24 h
Proteus vulgaris [6] = assay: Antimicrobial activity against Proteus vulgaris ATCC 8427 after 24 hrs by microbroth dilution method; format: functional; conditions: ATCC 8427, 24 h
Staphylococcus aureus [7] = assay: Antimicrobial activity against Staphylococcus aureus ATCC 25923 after 24 hrs by microbroth dilution method; format: functional; conditions: ATCC 25923, 24 h
Pseudomonas aeruginosa = assay: Antimicrobial activity against Pseudomonas aeruginosa ATCC 27853 after 24 hrs by microbroth dilution method; format: functional; conditions: ATCC 27853, 24 h
Shigella dysenteriae [8] = assay: Ratio of chloromycin MIC to compound MIC for Shigella dysenteriae ATCC 51252; format: functional
Shigella dysenteriae [9] = assay: Ratio of berberine MIC to compound MIC for Shigella dysenteriae ATCC 51252; format: functional

Compound	MIC (Micrococcus luteus) [µg/mL]	MIC80 (Cyberlindnera jadinii) [µg/mL]	MIC80 (Saccharomyces cerevisiae) [µg/mL]	MIC (Bacillus spizizenii) [µg/mL]	MIC80 (Candida albicans) [µg/mL]	MIC80 (Candida) [µg/mL]	Activity (Albumin)	Ratio (Proteus vulgaris [1])	Ratio (Proteus vulgaris [2])	Ratio (Proteus vulgaris [3])	MIC (Shigella dysenteriae [4]) [µg/mL]	MIC (Escherichia coli) [µg/mL]	MIC (Staphylococcus aureus [5]) [µg/mL]	MIC (Proteus vulgaris [6]) [µg/mL]	MIC (Staphylococcus aureus [7]) [µg/mL]	MIC (Pseudomonas aeruginosa) [µg/mL]	Ratio (Shigella dysenteriae [8])	Ratio (Shigella dysenteriae [9])
COc1ccc2cc3[n+](cc2c1OCCN(CCn1cncn1)Cc1ccc(Cl)cc1)CCc1cc2c(cc1-3)OCO2.[Cl-]	16	16	32	8	32	32	–	–	–	–	–	–	–	–	–	–	–	–
COc1ccc2cc3[n+](cc2c1OCCN(CCn1cncn1)Cc1cccc(Cl)c1)CCc1cc2c(cc1-3)OCO2.[Cl-]	32	8	32	16	16	4	–	–	–	–	–	–	–	–	–	–	–	–
COc1ccc2cc3[n+](cc2c1OCCN(CCn1cncn1)Cc1ccccc1Cl)CCc1cc2c(cc1-3)OCO2.[Cl-]	32	32	16	8	16	8	–	–	–	–	–	–	–	–	–	–	–	–
COc1ccc2cc3[n+](cc2c1OCCN(CCn1cncn1)Cc1ccc(Cl)c(Cl)c1)CCc1cc2c(cc1-3)OCO2.[Cl-]	16	32	32	8	8	4	–	–	–	–	–	–	–	–	–	–	–	–
COc1ccc2cc3[n+](cc2c1OCCN(CCn1cncn1)Cc1ccc(Cl)cc1Cl)CCc1cc2c(cc1-3)OCO2.[Cl-]	16	16	16	8	4	4	–	–	–	–	–	–	–	–	–	–	–	–
COc1ccc2cc3[n+](cc2c1OCCN(CCn1cncn1)Cc1cccc(F)c1)CCc1cc2c(cc1-3)OCO2.[Cl-]	16	8	16	8	4	4	–	–	–	–	–	–	–	–	–	–	–	–
COc1ccc2cc3[n+](cc2c1OCCN(CCn1cncn1)Cc1ccccc1F)CCc1cc2c(cc1-3)OCO2.[Cl-]	8	16	16	8	4	2	–	–	–	–	–	–	–	–	–	–	–	–
Clc1ccc(CN(CCBr)CCn2cncn2)cc1	512 (≈ 1490 µM)	128 (≈ 372 µM)	64 (≈ 186 µM)	256 (≈ 745 µM)	128 (≈ 372 µM)	256 (≈ 745 µM)	–	–	–	–	–	–	–	–	–	–	–	–
COc1ccc2cc3[n+](cc2c1OCCN(CCn1cncn1)Cc1ccc(F)cc1F)CCc1cc2c(cc1-3)OCO2.[Cl-]	8	8	32	8	4	2	Active	16	4	64	–	–	–	–	–	–	–	–
Clc1cccc(CN(CCBr)CCn2cncn2)c1	64 (≈ 186 µM)	256 (≈ 745 µM)	128 (≈ 372 µM)	256 (≈ 745 µM)	64 (≈ 186 µM)	256 (≈ 745 µM)	–	–	–	–	–	–	–	–	–	–	–	–
Clc1ccc(CN(CCBr)CCn2cncn2)c(Cl)c1	32 (≈ 84.6 µM)	256 (≈ 677 µM)	256 (≈ 677 µM)	256 (≈ 677 µM)	32 (≈ 84.6 µM)	256 (≈ 677 µM)	–	–	–	–	–	–	–	–	–	–	–	–
Clc1ccc(CN(CCBr)CCn2cncn2)cc1Cl	32 (≈ 84.6 µM)	64 (≈ 169 µM)	128 (≈ 339 µM)	256 (≈ 677 µM)	32 (≈ 84.6 µM)	256 (≈ 677 µM)	–	–	–	–	–	–	–	–	–	–	–	–
Clc1ccccc1CN(CCBr)CCn1cncn1	64 (≈ 186 µM)	128 (≈ 372 µM)	256 (≈ 745 µM)	256 (≈ 745 µM)	64 (≈ 186 µM)	256 (≈ 745 µM)	–	–	–	–	–	–	–	–	–	–	–	–
Fc1cccc(CN(CCBr)CCn2cncn2)c1	64 (≈ 196 µM)	256 (≈ 782 µM)	128 (≈ 391 µM)	256 (≈ 782 µM)	32 (≈ 97.8 µM)	256 (≈ 782 µM)	–	–	–	–	–	–	–	–	–	–	–	–
Fc1ccc(CN(CCBr)CCn2cncn2)c(F)c1	32 (≈ 92.7 µM)	256 (≈ 742 µM)	128 (≈ 371 µM)	256 (≈ 742 µM)	32 (≈ 92.7 µM)	256 (≈ 742 µM)	–	–	–	–	–	–	–	–	–	–	–	–
Fc1ccccc1CN(CCBr)CCn1cncn1	64 (≈ 196 µM)	128 (≈ 391 µM)	64 (≈ 196 µM)	256 (≈ 782 µM)	32 (≈ 97.8 µM)	256 (≈ 782 µM)	–	–	–	–	–	–	–	–	–	–	–	–
Fc1ccc(CN(CCBr)CCn2ccnc2)c(F)c1	64 (≈ 186 µM)	64 (≈ 186 µM)	128 (≈ 372 µM)	128 (≈ 372 µM)	64 (≈ 186 µM)	32 (≈ 93 µM)	–	–	–	–	128 (≈ 372 µM)	128 (≈ 372 µM)	64 (≈ 186 µM)	256 (≈ 744 µM)	64 (≈ 186 µM)	32 (≈ 93 µM)	–	–
COc1ccc2cc3[n+](cc2c1OCCN(CCn1ccnc1)Cc1ccc(F)cc1F)CCc1cc2c(cc1-3)OCO2.[Cl-]	32	32	32	16	32	32	–	–	–	–	16	32	16	32	8	16	–	–
Fc1ccc(CN(CCBr)CCn2cnc3ccccc32)c(F)c1	256 (≈ 649 µM)	128 (≈ 325 µM)	128 (≈ 325 µM)	256 (≈ 649 µM)	128 (≈ 325 µM)	64 (≈ 162 µM)	–	–	–	–	64 (≈ 162 µM)	512 (≈ 1300 µM)	256 (≈ 649 µM)	512 (≈ 1300 µM)	128 (≈ 325 µM)	128 (≈ 325 µM)	–	–
Cc1cc2ncn(CCN(CCBr)Cc3ccc(F)cc3F)c2cc1C	64 (≈ 152 µM)	128 (≈ 303 µM)	256 (≈ 606 µM)	32 (≈ 75.8 µM)	128 (≈ 303 µM)	64 (≈ 152 µM)	–	–	–	–	16 (≈ 37.9 µM)	128 (≈ 303 µM)	128 (≈ 303 µM)	128 (≈ 303 µM)	64 (≈ 152 µM)	64 (≈ 152 µM)	–	–
Fc1ccc(CN(CCBr)CCn2nnc3ccccc32)c(F)c1	256 (≈ 648 µM)	256 (≈ 648 µM)	256 (≈ 648 µM)	256 (≈ 648 µM)	> 512	> 512	–	–	–	–	64 (≈ 162 µM)	128 (≈ 324 µM)	128 (≈ 324 µM)	256 (≈ 648 µM)	256 (≈ 648 µM)	128 (≈ 324 µM)	–	–
COc1ccc2cc3[n+](cc2c1OCCN(CCn1cnc2ccccc21)Cc1ccc(F)cc1F)CCc1cc2c(cc1-3)OCO2.[Cl-]	16	16	32	32	32	32	–	–	–	–	8	32	32	32	16	16	–	–
COc1ccc2cc3[n+](cc2c1OCCN(CCn1cnc2cc(C)c(C)cc21)Cc1ccc(F)cc1F)CCc1cc2c(cc1-3)OCO2.[Cl-]	16	16	16	16	32	16	–	–	–	–	4	32	32	8	32	8	8	64
COc1ccc2cc3[n+](cc2c1OCCN(CCn1nnc2ccccc21)Cc1ccc(F)cc1F)CCc1cc2c(cc1-3)OCO2.[Cl-]	128	32	16	128	> 512	> 512	–	–	–	–	32	128	64	128	64	64	–	–
Fc1ccc(CN(CCBr)CCSc2nc3ccccc3[nH]2)c(F)c1	> 512	512 (≈ 1200 µM)	512 (≈ 1200 µM)	> 512	> 512	> 512	–	–	–	–	> 512	> 512	> 512	> 512	> 512	> 512	–	–
COc1ccc2cc3[n+](cc2c1OCCN(CCSc1nc2ccccc2[nH]1)Cc1ccc(F)cc1F)CCc1cc2c(cc1-3)OCO2.[Cl-]	128	64	64	64	64	128	–	–	–	–	128	32	64	64	32	64	–	–
COc1ccc2cc3[n+](cc2c1OC)CCc1cc2c(cc1-3)OCO2 [BERBERINE]	> 512	256	128	> 512	> 512	128	–	–	–	–	–	–	–	–	–	–	–	–
O=C(N[C@H](CO)[C@H](O)c1ccc([N+](=O)[O-])cc1)C(Cl)Cl [CHLORAMPHENICOL]	8 (≈ 24.8 µM)	–	–	32 (≈ 99 µM)	–	–	–	–	–	–	–	–	–	–	–	–	–	–
OC(Cn1cncn1)(Cn1cncn1)c1ccc(F)cc1F [FLUCONAZOLE]	–	8 (≈ 26.1 µM)	16 (≈ 52.2 µM)	–	1 (≈ 3.27 µM)	4 (≈ 13.1 µM)	–	–	–	–	–	–	–	–	–	–	–	–
CCn1cc(C(=O)O)c(=O)c2cc(F)c(N3CCNCC3)cc21 [NORFLOXACIN]	2 (≈ 6.26 µM)	–	–	1 (≈ 3.13 µM)	–	–	–	–	–	–	–	–	–	–	–	–	–	–
